{
  "source": "patent US10201516B2",
  "about": "(The Regents of the University of California, priority 2014, dated 2019)",
  "key": {"[1]": {"system": "Rasless MEFs", "assay": "Cell viability of rescued Rasless MEFs", "type": "cell-based, mouse", "description": "(§1) The dead cells were removed, and MTS assay (Promega, G5430) was performed for determining the percentage of viable cells, according to the manufacturer's instructions. DMSO was used as vehicle control and for normalization."}, "[2]": {"system": "K-Ras^G12V-induced papillomas", "assay": "K-Ras^G12V-induced papilloma in LRIG1cre/ER/LSL-Ras^G12V GEMM", "type": "in vivo, mouse", "excerpt": "(§2) We first used a papilloma model driven by H- or K-Ras^G12V under the control of a skin stem cell promoter, Lrig1 (FIG. 7C) (Jaks et al., Exp Cell Res 316:1422-1428, 2010; Page et al., Cell Stem Cell 13, 471-482, 2013). In this GEMM, tamoxifen inducible Cre recombinase initiates the expression of oncogenic H- or K-Ras^G12V, and the enforced oncogenic Ras expression disrupts the skin hemeostasis during wound healing and further induces papilloma formations (FIG. 7C).\n(§3) Lrig1 Cre/ER/LSL Hras and Lrig1 Cre/ER/LSL-Kras^G12D mice have been backcrossed into the FVB/N background over multiple generations to minimize the effects of genetic heterogeneity on tumor development. Cre recombinase was activated in both groups of mice by administering a single dose of 4oht (Tamoxifen), topically applied at 8 weeks of age. On day 7 thereafter, wounding was induced on their backs by cutting a 2 cm incision for papilloma development."}, "[3]": {"system": "PANC1 and PANC2.13", "assay": "Prevention of subcutaneous human pancreatic xenograft tumors in nude mice", "type": "in vivo, mouse", "description": "(§4) The drug was daily administrated into either NOD-SCID or athymic nude mice by oral gavages (OG) at 1 mg/kg or intraperitoneal (I.P) injection at 0.5 mg/kg. 10% DMSO, 10% cremophor, and 80% saline solutions were used as the solvent and vehicle control."}, "[4]": {"system": "Ras^V12-transformed NIH/3T3 cells", "assay": "Tumor initiation of Ras^V12-transformed NIH/3T3 cells in nude mice", "type": "in vivo, mouse", "description": "All experiments were approved by the IACUC of the University of California, San Francisco. Ras^V12-transformed NIH/3T3 cells were subcutaneously injected in female nude mice (Nu/Nu) at 50, 100 or 1,000 cells per flank. Palpable tumors were measured twice a week. The animals were divided into five mice per group. Pancreatic adenocarcinoma cells derived from Braf^CA and Kras^LSL-G12D mice are provided by Eric Collisson, and genotyped as described (Collison et al., Nat Med 17:500-503, 2011; Dankort et al., Genes Dev 21:379-384, 2007; Hingorani et al., Cancer Cell 4:[…], 2003). One hundred cells were orthotopically implanted in 6- to 8-week-old FVB/n mice in 20 μL 50% Matrigel using a 28.5-gauge needle. Mice were monitored for one month and were euthanized when distressed.\nas §4"}, "[5]": {"conditions": "PKC activators, literature; cited from earlier work"}, "[6]": {"system": "H-Ras^G12V-induced tumors", "assay": "H-Ras^G12V-induced papilloma in LRIG1cre/ER/LSL-Ras^G12V GEMM", "type": "in vivo, mouse", "conditions": "daily treatment (FIG. 7D)", "excerpt": "as §2, §3"}, "[7]": {"system": "PANC1 and PANC2.13", "assay": "Morphology, viability and proliferating rate of human pancreatic cancer cell lines", "type": "cell-based", "description": "as §1"}, "[8]": {"system": "LEF1", "assay": "LEF1 mRNA expression in PANC1 and PANC2.13 (qPCR)", "type": "cell-based", "conditions": "human pancreatic cancer cells (FIG. 13B)", "description": "(§5) Total RNAs were isolated and purified using QIAGEN RNAeasy kit. 1 μg RNA per specimen was reverse transcribed into cDNA using SuperScript™ First-Strand Synthesis System for RT-PCR (Invitrogen). Possible contamination of genomic DNA was excluded by treatments of DNase I. Quantitative real-time PCR array analysis was performed using SYBR Green (Applied Biosystem). Fold differences and statistical analysis were calculated using the GraphPad Prism 4.00 for Windows (GraphPad Software). The mouse Stem Cell Signaling RT^2Profiler PCR array on 96-well plate (PAMM-047Z) was purchased from SABiosciences."}, "[9]": {"system": "PANC1 or PANC2.13", "assay": "Established subcutaneous human pancreatic xenograft tumors", "type": "in vivo, mouse", "description": "as §4"}, "[10]": {"system": "Ras^V12-transformed NIH/3T3 cells", "assay": "Drug sensitization assay (MTS cell viability), Ras-transformed NIH/3T3", "type": "cell-based, mouse", "description": "as §1"}, "[11]": {"system": "Fzd8", "assay": "Fzd8 mRNA expression in PANC1 and PANC2.13 (qPCR)", "type": "cell-based", "conditions": "human pancreatic cancer cells (FIG. 13B)", "description": "as §5"}, "[12]": {"system": "HIV-1", "conditions": "cited from earlier work"}, "[13]": {"system": "CaMKii", "assay": "Western blot of phospho-CaMKii in Ras-transformed NIH/3T3 cells (and human pancreatic cancer cell lines)", "type": "cell-based, mouse", "description": "Experimental cells were washed twice in ice-cold PBS and lysed in 1% Triton lysis buffer [25 mmol/L Tris pH 7.5, 150 mmol/L NaCl, 1% Triton X-100, 1 mmol/L EDTA, 1 mmol/L EGTA, 20 mmol/L NaF, 1 mmol/L […], and 1 mmol/L DTT] supplemented with a protease inhibitor cocktail (Roche) and cleared by centrifugation. Protein concentrations were determined by the Bio-Rad Protein Assay (Bio-Rad). Equal amounts of protein extracts were resolved using SDS-PAGE (NuPAGE; Invitrogen), transferred to a nitrocellulose membrane, and immunoblotted with primary antibodies indicated, followed by secondary antibodies labeled with either IRDye800 (Rockland) or Alexa Fluor 680 (Molecular Probes) and were visualized using a LI-COR Odyssey scanner. A complete list of primary antibodies is provided in the Extended Experimental Procedures."}, "[14]": {"assay": "Toxicity by body weight changes in treated mice", "type": "in vivo, mouse", "conditions": "oral or i.p. prostratin (FIG. 13D)", "description": "as §4"}, "[15]": {"system": "K-Ras and CaM interaction", "assay": "CaM pull-down assay of K-Ras/calmodulin interaction", "type": "cell-based", "conditions": "Ras^V12-transformed cells and multiple human pancreatic cancer cell lines (FIG. 5H)"}, "[16]": {"conditions": "subcutaneous PANC2.13 (FIG. 6D)"}, "[17]": {"conditions": "human pancreatic cancer cells (FIG. 14A right)"}},
  "note": "“Also recorded” adds a separate entry of the source.",
  "data": [
    {"smiles": "CC(=O)O[C@@]12C[C@@H](C)[C@@]3(O)C(C=C(CO)C[C@]4(O)C(=O)C(C)=C[C@@H]34)[C@@H]1C2(C)C", "note": "(stereo partly shown) [prostratin, 12-deoxyphorbol-13-acetate]", "values": [
      {"measurement": "cell viability response", "setting": "[1]; Rasless MEFs rescued with H-Ras^V12 (FIG. 13C)", "result": "minimal responses"},
      {"measurement": "cell viability", "setting": "[1]; Rasless MEFs rescued with K-Ras(4B)^V12 (FIG. 13C)", "result": "decreased cell viability"},
      {"measurement": "EMT markers (E-cadherin, vimentin) in K-Ras^G12V-driven skin tumors", "setting": "[2]; FIG. 7E", "result": "maintained strong expression of epithelial maker"},
      {"measurement": "growth rate of K-Ras^G12V-induced papillomas", "setting": "[2]; FIG. 14E", "result": "significantly slowed down the growth rate"},
      {"measurement": "formation of papillomas driven by K-Ras^G12V", "setting": "[2]; daily treatment (FIG. 7D)", "result": "significantly delayed/reduced the formation of papillomas"},
      {"measurement": "tumor initiation and tumor size by bioluminescence imaging (BLI)", "setting": "[3]; subcutaneous PANC2.13 (FIG. 6C)", "result": "profoundly suppressed tumor initiation and tumor size"},
      {"measurement": "expression of Ki67", "setting": "[3]; [16]", "result": "reduced expression of Ki67"},
      {"measurement": "tumor growth rate during therapy", "setting": "[3]; [16]", "result": "dramatically reduced tumor growth rate"},
      {"measurement": "average size of established tumors", "setting": "[3]; subcutaneous PANC2.13, vs control group (FIG. 6B)", "result": "much smaller"},
      {"measurement": "frequency of tumor formation", "setting": "[3]; subcutaneous xenograft, oral prostratin from one day before implantation, vs vehicle (FIG. 6A)", "result": "significantly reduced the frequency of tumor formation"},
      {"measurement": "tumorigenicity of K-Ras^V12-transformed cells", "setting": "[4]; administered orally or intra-peritoneally, nude mice (FIG. 13D)", "result": "dramatically suppressed the tumorigenicity"},
      {"measurement": "size of subcutaneous tumor derived from K-Ras^V12-NIH/3T3 cells", "setting": "[4]; vs vehicle control (FIG. 13D-E)", "result": "much smaller"},
      {"measurement": "phosphor-CaMKii in tumor derived from K-Ras^V12-NIH/3T3 cells", "setting": "[4]; vs vehicle control (FIG. 13E)", "result": "greatly increased phosphor-CaMKii"},
      {"measurement": "tumor promotion", "setting": "[5]", "result": "far less potent for tumor promotion"},
      {"measurement": "initiation of H-Ras^G12V-induced tumors", "setting": "[6]", "result": "no effects"},
      {"measurement": "cell morphology", "setting": "[7]; human pancreatic cancer cell lines with mutant K-Ras (FIG. 14A left)", "result": "cell morphological changes phenocopying those observed with knock-down of K-Ras or over-expression of Fzd8"},
      {"measurement": "cell viability", "setting": "[7]; [17]", "result": "significantly reduced cell viability"},
      {"measurement": "proliferating rate", "setting": "[7]; [17]", "result": "significantly reduced"},
      {"measurement": "expression of β-catenin targeted gene LEF1", "setting": "[8]", "result": "reduced the expressions of β-catenin targeted gene, LEF1"},
      {"measurement": "expression of cleaved caspase 3 in subcutaneous tumors", "setting": "[9]; FIG. 14D", "result": "enhanced expression of cleaved caspase 3"},
      {"measurement": "growth rate of established subcutaneous tumors", "setting": "[9]; daily oral treatment from 10 to 14 days post-injection, vs vehicle (FIG. 7A)", "result": "significantly reduced growth rate"},
      {"measurement": "sensitivity to prostratin (cell viability)", "setting": "[10]; H-Ras^V12 or K-Ras^V12-S181D-transformed NIH/3T3 cells (FIG. 5J)", "result": "but not H-Ras^V12 or K-Ras^V12-S181D, -transformed NIH/3T3 cells, were sensitive to prostratin"},
      {"measurement": "cell viability", "setting": "[10]; K-Ras^V12-transformed NIH/3T3 cells (FIG. 5J)", "result": "dramatically reduced cell viability"},
      {"measurement": "expression of Fzd8", "setting": "[11]", "result": "increased expression of Fzd8"},
      {"measurement": "CD4 receptor", "setting": "[12]; literature", "result": "down-regulating the CD4 receptor"},
      {"measurement": "reactivation of latent HIV-1", "setting": "[12]; memory CD4+ T cells that harbor latent proviruses", "result": "reactivates HIV-1"},
      {"measurement": "activation of CaMKii", "setting": "[13]; NIH/3T3 cells transformed by K-Ras^V12-S181A mutant or H-Ras^V12 (legend FIG. 5I)", "result": "not K-Ras^V12-S181A mutant or H-Ras^V12"},
      {"measurement": "levels of phospho-CaMKii", "setting": "[13]; Ras^V12-transformed cells and human pancreatic cancer cell lines (FIG. 5H-I)", "result": "dramatically elevated levels of phospho-CaMKii"},
      {"measurement": "activity of CaMKii", "setting": "[13]; cells transformed by H-Ras^V12 or K-Ras^V12-S181D (FIG. 5I)", "result": "did not alter the activity of CaMKii"},
      {"measurement": "systemic toxicity (body weight changes)", "setting": "[14]", "result": "no evidence of systemic toxicity; also recorded: no systematically toxic effects"},
      {"measurement": "endogenous interaction between K-Ras and CaM", "setting": "[15]", "result": "abolished the endogenous interaction between K-Ras and CaM"}
    ]}
  ]
}
